The text below walks through data of patent US8895727B2, “Method for preparation of fluorine-18-labeled flumazenil using diaryliodonium salt precursor” (priority 2011, dated 2014).

The nature of this data set: Stability of diaryliodonium salt precursors under heating and base conditions (HPLC of by-products I-mazenil and H-mazenil). Format: physicochemical. The conditions noted are these: for relative instability of precursor (stability of 8f set forth to be 1.00): 150° C., 15 min, K2.2.2./K2CO3 in dimethylformamide, without fluorine-18, ratio relative to 8f (FIG. 6). On the procedure:
Contrary to the expectation that the diaryliodonium salt precursors (8b to 8e) could be labeled at higher yields than precursor 8a thanks to their higher electron densities, a lower labeling yield of fluorine18 was detected for them at high temperatures in the presence of a base. This might be accounted by the significance of the stability of the precursors. To verify this, the precursors were analyzed for stability in the […] to examine the reactivity of each precursor. In the following Reaction Scheme 2, the degradation of each diaryliodonium salt precursor in the presence of base under a heating condition is illustrated. As shown, two compounds I-mazenil (9) and H-mazenil (10) are formed, and their concentrations reflect the stability of the diaryliodonium salt precursor.
The diaryliodonium salt precursors whose aromatic rings are richer in electron density, compared to phenyl-mazenil-iodonium salt (8a), are more apt to be affected by the reaction conditions for aromatic fluorination with fluorine-18. […] To examine the selectivity and stability of the diaryliodonium salts, the production of the by-products I-mazenil (9) and H-mazenil(10) which are degraded from the precursors due to their instability in a condition free of fluorine-18 was analyzed using HPLC. […]
After each diaryliodonium salt precursor was thermally treated 150° C. for 15 min in the presence of kryptofix2.2.2./potassium carbonate (K2.2.2./K2CO3) in dimethylformamide, without fluorine-18, measurement was made of the concentrations of 1-mazenil (9) and H-mazenil (10) to evaluate the stability of each precursor (FIG. 6). In addition, the labeling reactivity of the diaryliodonium salt precursors into [19F]flumazenil was assessed by reacting them with cesium fluoride at 90° C. for 120 min in dimethylformamide (FIG. 7). […]

Turning to `CCOC(=O)c1ncn2c1CN(C)C(=O)c1cc([I+]c3ccccc3)ccc1-2.Cc1ccc(S(=O)(=O)[O-])cc1` [Precursor 8a, ethyl 8-phenyl(iodonium tosylate)-5,6-dihydro-5-methyl-6-oxo-4H-imidazo[1,5-a][1,4]benzodiazepine-3-carboxylate], the “relative instability of precursor (stability of 8f set forth to be 1.00)” value is reported as 1.11.

As for `CCOC(=O)c1ncn2c1CN(C)C(=O)c1cc([I+]c3ccc(C)cc3)ccc1-2.Cc1ccc(S(=O)(=O)[O-])cc1` [Precursor 8f, ethyl 8-(4-methylphenyl)(iodonium tosylate)-5,6-dihydro-5-methyl-6-oxo-4H-imidazo[1,5-a][1,4]benzodiazepine-3-carboxylate], the “relative instability of precursor (stability of 8f set forth to be 1.00)” value worked out at 1.00. Besides, the “stability among the diaryliodonium salt precursors” value (potassium carbonate and 150° C., similar results with TBAHCO3 and TBAOH (FIG. 6)) is “the most stable”.
